Starred links: 1 amine or outer side, 2 acyl side, 3 side chain; linkers in the order of their positions; H or OH if unused. Non-standard residues stand in square brackets, D forms with d. Residues, ends and D or L forms follow the SMILES beside them. Groups on a side chain read outwards from the residue. *: point of attachment. C20 diacid = O=C(O)CCCCCCCCCCCCCCCCCCC(=O)*; γGlu = O=C(O)[C@H](CCC(=O)[*:2])N[*:1]; AEEA = NCCOCCOCC(=O)O; Aib = CC(C)(N)C(=O)O
Tests used:
[1] = Glucose metabolism level of db/db mice (fasting and random blood glucose, glycated hemoglobin); assay type: in vivo, C57BL/KsJ-db/db mice; conditions: for Glycated hemoglobin: end of experiment day 28, mean ± SD
Protocol: Each administration group had 10 db/db mice. According to the experimental design, tail vein blood was collected by needle pricking on days 0, 7, 14, 21, and 28 and determined for fasting blood glucose levels with a glucometer and glucose dipsticks, and the mice were fasted 6 h prior to the blood collection at each time point. Tail vein blood was collected by needle pricking on days 3, 10, 17, 24, and 27 and randomly determined for blood glucose levels with a glucometer. Finally, at the end of the experiment on day 28, all the animals in the administration groups were subjected to 2-5% isoflurane inhalation anesthesia, and 100 μL of whole blood was collected through the orbit of each mouse using an EDTA-K2 anticoagulation tube and used for the determination of glycated hemoglobin.

[2] = Viscera/brain ratio for fat mass in diet-induced-obesity mice; assay type: in vivo, C57BL/6 mice; conditions: DIO mice; for viscera/brain ratio for fat mass, Epididymal fat / viscera/brain ratio for fat mass, Inguinal fat / viscera/brain ratio for fat mass, Mesenteric fat / viscera/brain ratio for fat mass, Perirenal fat / viscera/brain ratio for fat mass, Scapular fat / viscera/brain ratio for fat mass, Subcutaneous fat: X ± s
Protocol: (§1) High-fat food-induced-obesity male C57BL/6 mice (weighing 35-55 g, aged 10-12 weeks, purchased from Shanghai Jiesijie Laboratory Animal Co., Ltd.) were tested. […] According to the experimental design, the body weight of each mouse was measured and recorded on day 0, day 3, day 6, and so on to day 27, the average body weight of each group of mice was calculated, and body weight change curves were plotted by taking the body weight on the first day as the standard. At the end, the fat and other visceral organs of each part of the mice were taken out and weighed, and the viscera/brain ratio for fat in each part of each mouse was calculated. The effect of the drug on the fat was determined by comparing the change in the viscera/brain ratio for fat of different parts of each group of mice.

[3] = Body weight of diet-induced-obesity mice after subcutaneous administration; assay type: in vivo, C57BL/6 mice; conditions: DIO mice, 3 nmol/kg s.c. every 3 days
Protocol: as §1

[4] = 10 nmol/kg s.c., Day 0, mean ± SD
[5] = 30 nmol/kg s.c., Day 0, mean ± SD
[6] = 100 nmol/kg s.c., Day 0, mean ± SD

## CC[C@H](C)[C@H](NC(=O)[C@H](CCCCN)NC(=O)[C@H](CCC(=O)O)NC(=O)[C@H](CCCCNC(=O)COCCOCCNC(=O)COCCOCCNC(=O)CC[C@H](NC(=O)CCCCCCCCCCCCCCCCCCC(=O)O)C(=O)O)NC(=O)[C@H](Cc1ccc(O)cc1)NC(=O)[C@@H](NC(=O)[C@H](CO)NC(=O)[C@H](Cc1ccc(O)cc1)NC(=O)[C@H](CC(=O)O)NC(=O)[C@H](CO)NC(=O)[C@@H](NC(=O)[C@H](Cc1ccccc1)NC(=O)[C@@H](NC(=O)CNC(=O)[C@H](CCC(=O)O)NC(=O)C(C)(C)NC(=O)[C@@H](N)Cc1ccc(O)cc1)[C@@H](C)O)[C@@H](C)O)[C@@H](C)CC)C(=O)N[C@@H](C)C(=O)N[C@@H](C)C(=O)N[C@@H](CCC(N)=O)C(=O)N[C@@H](CCC(=O)O)C(=O)N[C@@H](Cc1ccccc1)C(=O)N[C@H](C(=O)N[C@@H](CC(N)=O)C(=O)N[C@@H](Cc1c[nH]c2ccccc12)C(=O)N[C@@H](CC(C)C)C(=O)N[C@@H](CC(C)C)C(=O)N[C@@H](C)C(=O)NCC(=O)NCC(=O)N1CCC[C@H]1C(=O)N[C@@H](CO)C(=O)N[C@@H](CO)C(=O)NCC(=O)N[C@@H](C)C(=O)N1CCC[C@H]1C(=O)N1CCC[C@H]1C(=O)N1CCC[C@H]1C(=O)N[C@@H](CO)C(N)=O)C(C)C [Compound 18#] (H-Y[Aib]EGTFTSDYSIYK([AEEA-AEEA-γGlu-C20 diacid])EKIAAQEFVNWLLAGGPSSGAPPPS-NH2)
[1]; [4]
  Concentration of fasting blood glucose: 14.77 ± 1.30 mmol/L
  Concentration of random blood glucose: 20.42 ± 1.56 mmol/L
[1]; 10 nmol/kg s.c., Day 7, mean ± SD
  Concentration of fasting blood glucose: 6.05 ± 0.42 mmol/L
[1]; 10 nmol/kg s.c., Day 10, mean ± SD
  Concentration of random blood glucose: 20.66 ± 1.48 mmol/L
[1]; 10 nmol/kg s.c., Day 14, mean ± SD
  Concentration of fasting blood glucose: 6.30 ± 0.46 mmol/L
[1]; 10 nmol/kg s.c., Day 17, mean ± SD
  Concentration of random blood glucose: 18.91 ± 1.33 mmol/L
[1]; 10 nmol/kg s.c., Day 21, mean ± SD
  Concentration of fasting blood glucose: 7.89 ± 0.81 mmol/L
[1]; 10 nmol/kg s.c., Day 24, mean ± SD
  Concentration of random blood glucose: 21.17 ± 2.07 mmol/L
[1]; 10 nmol/kg s.c., Day 28, mean ± SD
  Concentration of fasting blood glucose: 9.41 ± 0.97 mmol/L
[1]; 10 nmol/kg s.c.
  Glycated hemoglobin: 4.71 ± 0.23 %
[1]; [5]
  Concentration of fasting blood glucose: 14.13 ± 1.32 mmol/L
  Concentration of random blood glucose: 16.73 ± 1.59 mmol/L
[1]; 30 nmol/kg s.c., Day 7, mean ± SD
  Concentration of fasting blood glucose: 6.21 ± 0.26 mmol/L
[1]; 30 nmol/kg s.c., Day 10, mean ± SD
  Concentration of random blood glucose: 15.88 ± 1.86 mmol/L
[1]; 30 nmol/kg s.c., Day 14, mean ± SD
  Concentration of fasting blood glucose: 6.40 ± 0.57 mmol/L
[1]; 30 nmol/kg s.c., Day 17, mean ± SD
  Concentration of random blood glucose: 17.30 ± 1.17 mmol/L
[1]; 30 nmol/kg s.c., Day 21, mean ± SD
  Concentration of fasting blood glucose: 7.03 ± 0.52 mmol/L
[1]; 30 nmol/kg s.c., Day 24, mean ± SD
  Concentration of random blood glucose: 17.43 ± 1.92 mmol/L
[1]; 30 nmol/kg s.c., Day 28, mean ± SD
  Concentration of fasting blood glucose: 9.68 ± 1.03 mmol/L
[1]; 30 nmol/kg s.c.
  Glycated hemoglobin: 4.53 ± 0.17 %
[1]; [6]
  Concentration of fasting blood glucose: 14.67 ± 1.46 mmol/L
  Concentration of random blood glucose: 9.11 ± 1.25 mmol/L
[1]; 100 nmol/kg s.c., Day 7, mean ± SD
  Concentration of fasting blood glucose: 5.85 ± 0.33 mmol/L
[1]; 100 nmol/kg s.c., Day 10, mean ± SD
  Concentration of random blood glucose: 12.34 ± 1.12 mmol/L
[1]; 100 nmol/kg s.c., Day 14, mean ± SD
  Concentration of fasting blood glucose: 6.25 ± 0.32 mmol/L
[1]; 100 nmol/kg s.c., Day 17, mean ± SD
  Concentration of random blood glucose: 11.89 ± 1.15 mmol/L
[1]; 100 nmol/kg s.c., Day 21, mean ± SD
  Concentration of fasting blood glucose: 6.13 ± 0.19 mmol/L
[1]; 100 nmol/kg s.c., Day 24, mean ± SD
  Concentration of random blood glucose: 11.51 ± 0.95 mmol/L
[1]; 100 nmol/kg s.c., Day 28, mean ± SD
  Concentration of fasting blood glucose: 7.89 ± 0.41 mmol/L
[1]; 100 nmol/kg s.c., listed as 18 #
  Glycated hemoglobin: 3.78%
[1]; 100 nmol/kg s.c., listed as #18
  Glycated hemoglobin: 3.78 ± 0.13 %
[2]; 3 nmol/kg
  viscera/brain ratio for fat mass, Epididymal fat: 254.6 ± 113.4 %
  viscera/brain ratio for fat mass, Inguinal fat: 281.5 ± 140.1 %
  viscera/brain ratio for fat mass, Mesenteric fat: 84.8 ± 41.3 %
  viscera/brain ratio for fat mass, Perirenal fat: 159.2 ± 87.6 %
  viscera/brain ratio for fat mass, Scapular fat: 48 ± 15.3%
  viscera/brain ratio for fat mass, Subcutaneous fat: 129 ± 62 %
[2]; 10 nmol/kg
  viscera/brain ratio for fat mass, Epididymal fat: 211.7 ± 80.7 %
  viscera/brain ratio for fat mass, Inguinal fat: 194.4 ± 86.2 %
  viscera/brain ratio for fat mass, Mesenteric fat: 53.3 ± 14.6 %
  viscera/brain ratio for fat mass, Perirenal fat: 109.4 ± 57.1 %
  viscera/brain ratio for fat mass, Scapular fat: 42.5 ± 17%
  viscera/brain ratio for fat mass, Subcutaneous fat: 122 ± 73.2 %
[2]; 100 nmol/kg
  viscera/brain ratio for fat mass, Epididymal fat: 102.9 ± 32.2 %
  viscera/brain ratio for fat mass, Inguinal fat: 92 ± 34.5 %
  viscera/brain ratio for fat mass, Mesenteric fat: 27.4 ± 11.1 %
  viscera/brain ratio for fat mass, Perirenal fat: 46.6 ± 18.2 %
  viscera/brain ratio for fat mass, Scapular fat: 32.3 ± 7%
  viscera/brain ratio for fat mass, Subcutaneous fat: 57.1 ± 21.2 %
[2]; all dose test groups
  content of fat of each part (except scapular fat) relative to placebo: significantly reduced
[3]; day 0 (before administration)
  rate of body weight change: 0%
[3]; day 1
  rate of body weight change: −5%
[3]; day 2
  rate of body weight change: −6.3%
[3]; day 3
  rate of body weight change: −5.8%
[3]; day 4
  rate of body weight change: −9.1%
[3]; day 5
  rate of body weight change: −10.3%
[3]; day 6
  rate of body weight change: −10%
[3]; day 7
  rate of body weight change: −13%
[3]; day 8
  rate of body weight change: −13.9%
[3]; day 9
  rate of body weight change: −13.9%
[3]; day 10
  rate of body weight change: −16.6%
[3]; day 11
  rate of body weight change: −16.4%
[3]; day 12
  rate of body weight change: −15.7%
[3]; day 13
  rate of body weight change: −18.2%
[3]; day 14
  rate of body weight change: −17.1%
[3]; day 15
  rate of body weight change: −15.7%
[3]; day 16
  rate of body weight change: −18.6%
[3]; day 17
  rate of body weight change: −18.3%

From patent US20260014232A1, “Pharmaceutical Composition of GLP-1 and GIP Receptor Dual Agonist and Use Thereof” (Jiangsu Hengrui Pharmaceuticals Co., Ltd., priority 2021, published 2026)
